# Laboratory results reported in US20100080786A1, “Phenyl or Pyridinyl Substituted Indazoles Derivatives” (priority 2008, published 2010).
# Target: T1, Human Glucocorticoid Receptor (GR) (Homo sapiens, UniProt P04150)
# T1 construct: The full length GR was diluted to a final concentration of 3.3% (0.495 mg/ml) in assay buffer
# T1 sequence (P04150 1-777): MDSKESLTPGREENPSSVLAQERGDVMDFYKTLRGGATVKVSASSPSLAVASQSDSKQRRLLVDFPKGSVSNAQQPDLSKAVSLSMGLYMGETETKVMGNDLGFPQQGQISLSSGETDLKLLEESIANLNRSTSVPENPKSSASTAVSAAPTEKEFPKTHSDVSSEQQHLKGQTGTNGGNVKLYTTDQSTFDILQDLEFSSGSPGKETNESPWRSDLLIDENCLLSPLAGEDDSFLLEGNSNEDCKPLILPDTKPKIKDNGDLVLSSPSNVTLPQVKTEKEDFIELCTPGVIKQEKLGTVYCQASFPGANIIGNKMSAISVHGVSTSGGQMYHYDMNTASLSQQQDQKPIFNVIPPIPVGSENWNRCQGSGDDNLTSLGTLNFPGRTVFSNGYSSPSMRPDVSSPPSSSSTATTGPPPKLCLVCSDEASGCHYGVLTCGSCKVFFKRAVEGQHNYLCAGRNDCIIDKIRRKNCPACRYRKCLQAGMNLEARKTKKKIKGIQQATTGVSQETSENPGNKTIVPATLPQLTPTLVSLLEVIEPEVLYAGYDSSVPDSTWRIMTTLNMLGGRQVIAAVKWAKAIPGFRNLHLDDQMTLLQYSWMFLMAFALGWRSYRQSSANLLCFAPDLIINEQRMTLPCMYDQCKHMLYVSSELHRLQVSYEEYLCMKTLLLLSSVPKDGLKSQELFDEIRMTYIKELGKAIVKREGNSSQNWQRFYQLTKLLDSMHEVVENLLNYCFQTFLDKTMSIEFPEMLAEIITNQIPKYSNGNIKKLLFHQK
# Assay: Human Glucocorticoid Receptor (GR) radioligand binding assay (3H-dexamethasone competition)
# Conditions: full length GR; 7 nM 3H-dexamethasone; 2 h at room temperature
# Experimental: Human Glucocorticoid Receptor (GR) Assay
# The radioligand GR binding assay is based on a competition assay using ^3H-labeled Dexamethasone. Dexamethasone is known to bind in the ligand binding domain of GR and compete for binding with endogenous ligands like e.g. cortisol (Necela, 2003). In the GR radioligand binding assay, test compounds were serially diluted in semi-log steps (10 concentrations) with a final concentration of 10 μM. Test compounds (1 μL) and controls (1 μL) in 100% DMSO were added to 96 Greiner V-bottom polypropylene plates. 0% control was 6.7% DMSO (final concentration in assay) and 100% control was 6.7 μM Dexamethasone.
# The full length GR was diluted to a final concentration of 3.3% (0.495 mg/ml) in assay buffer (20 mM Tris-HCl, 1 mM EDTA, 10% (w/v) Glycerol, 20 mM Sodium molybdate, pH 7.4). 45 μL of GR was added to each well and the plates were incubated for 15 min at room temperature.
# ^3H-dexamethasone solution was diluted to a concentration of 70 nM in assay buffer (7 nM final assay concentration) and 5 μL was added to each well. The samples were mixed for 5 min using a plate shaker at 700 rpm, before incubation for 2 h at room temperature.
# 50 μL ice-cold charcoal solution (pH 7.4:2% Charcoal, 0.2% Dextran T70 in 20 mM Tris-HCl, 1 mM EDTA and 20 mM Sodium molybdate) was added to each well and the samples were mixed on plate shaker for 5 minutes.
# The plate was then centrifuged for 1.5 min at 1500 rpm, the samples (80 μL) were is transferred from each well to a filter plate (Millipore, 0.45 μm, MHVBN45) on a vacuum manifold and then collected into new plates (Greiner, 96 well white/transparent, 655095). The filter plate was washed once with 20 μl of water and then 100 μL of scintillation liquid was added to each well and mixed by incubation on plate shaker for 5 min. Radioactivity was measured in a 1450 Microbeta Trilux Reader (Wallac) counting cpm for 2 minutes per well. The data obtained from each replicate experiment were analysed using the software ActivityBase, version 5.4.3 (ID Business Solutions Ltd) and IC50 values were calculated. Ref: Necela, B M, Cidlowski, J A, Trends Pharmacol Sci, 24: 58, 2003
row,IC50 [nM],SMILES
1,1.93,"C[C@H](NC(=O)c1cccc(-n2ncc3cc(O[C@H](c4ccccc4)[C@H](C)NC(=O)C(C)(F)F)ccc32)c1)C(N)=O [Example 5, N-[(1S)-2-amino-1-methyl-2-oxoethyl]-3-[5-({(1R,2S)-2-[(2,2-difluoropropanoyl)amino]-1-phenylpropyl}oxy)-1H-indazol-1-yl]benzamide]"
2,5.06,"CC(=O)NCCNC(=O)c1cccc(-n2ncc3cc(O[C@H](c4ccccc4)[C@H](C)NC(=O)C(C)(F)F)ccc32)c1 [Example 6, N-[2-(acetylamino)ethyl]-3-[5-({(1R,2S)-2-[(2,2-difluoropropanoyl)amino]-1-phenylpropyl}oxy)-1H-indazol-1-yl]benzamide]"
3,0.86,"COc1ccc([C@@H](Oc2ccc3c(cnn3-c3cccc(C(=O)Nc4cccnc4)c3)c2)[C@H](C)NC(=O)C(C)(F)F)cn1 [Example 23, 3-(5-{[(1R,2S)-2-[(2,2-difluoropropanoyl)amino]-1-(6-methoxypyridin-3-yl)propyl]oxy}-1H-indazol-1-yl)-N-(pyridin-3-yl)benzamide]"
4,40.2,"C[C@H](NC(=O)C(C)(F)F)[C@H](Oc1ccc2c(cnn2-c2cccc(C(=O)NCCN3C(=O)OC(C)(C)C3=O)c2)c1)c1ccccc1 [Example 14, 3-[5-({(1R,2S)-2-[(2,2-difluoropropanoyl)amino]-1-phenylpropyl}oxy)-1H-indazol-1-yl]-N-[2-(5,5-dimethyl-2,4-dioxo-1,3-oxazolidin-3-yl)ethyl]benzamide]"
5,4.22,C[C@H](NC(=O)C(C)(F)F)[C@H](Oc1ccc2c(cnn2-c2cccc(C(=O)N(C)CC(N)=O)c2)c1)c1ccccc1 [Example 18]
6,2.54,"C[C@H](NC(=O)C(C)(F)F)[C@H](Oc1ccc2c(cnn2-c2cccc(C(=O)N3CCNC(=O)C3)c2)c1)c1ccccc1 [Example 12, 2,2-Difluoro-N-{(1S,2R)-1-methyl-2-[(1-{3-[(3-oxopiperazin-1-yl)carbonyl]phenyl}-1H-indazol-5-yl)oxy]-2-phenylethyl}propanamide]"
7,5.65,"C[C@H](NC(=O)C(C)(F)F)[C@H](Oc1ccc2c(cnn2-c2cccc(C(=O)N3CC[C@@H](O)C3)c2)c1)c1ccccc1 [Example 9, 2,2-Difluoro-N-[(1S,2R)-2-{[1-(3-{[(3R)-3-hydroxypyrrolidin-1-yl]carbonyl}phenyl)-1H-indazol-5-yl]oxy}-1-methyl-2-phenylethyl]propanamide]"
8,3.55,"C[C@H](NC(=O)C(C)(F)F)[C@H](Oc1ccc2c(cnn2-c2cccc(C(=O)N[C@@H](C(N)=O)c3ccccc3)c2)c1)c1ccccc1 [Example 17, N-[(1R)-2-amino-2-oxo-1-phenylethyl]-3-[5-({(1R,2S)-2-[(2,2-difluoropropanoyl)amino]-1phenylpropyl}oxy)-1H-indazol-1-yl]benzamide]"
9,6.88,"C[C@H](NC(=O)C(C)(F)F)[C@H](Oc1ccc2c(cnn2-c2cccc(C(=O)N3CCC[C@@H]3CO)c2)c1)c1ccccc1 [Example 8, 2,2-Difluoro-N-[(1S,2R)-2-{[1-(3-{[(2R)-2-(hydroxymethyl)pyrrolidin-1-yl]carbonyl}phenyl)-1H-indazol-5-yl]oxy}-1-methyl-2-phenylethyl]propanamide]"
10,1.61,"C[C@H](NC(=O)C(C)(F)F)[C@H](Oc1ccc2c(cnn2-c2cccc(C(=O)NCC(N)=O)c2)c1)c1ccccc1 [Example 4, N-(2-amino-2-oxoethyl)-3-[5-({(1R,2S)-2-[(2,2-difluoropropanoyl)amino]-1-phenylpropyl}oxy)-1H-indazol-1-yl]benzamide]"
11,1.37,"COc1ccc([C@@H](Oc2ccc3c(cnn3-c3cccc(C(=O)NC4CCCC4)c3)c2)[C@H](C)NC(=O)C(C)(F)F)cn1 [Example 22, N-cyclopentyl-3-(5-{[(1R,2S)-2-[(2,2-difluoropropanoyl)amino]-1-(6-methoxypyridin-3-yl)propyl]oxy}-1H-indazol-1-yl)benzamide]"
12,2.99,"COc1ccc([C@@H](Oc2ccc3c(cnn3-c3cccc(C(=O)NC4CCOC4)c3)c2)[C@H](C)NC(=O)C(C)(F)F)cn1 (stereo partly drawn) [Example 25, 3-(5-{[(1R,2S)-2-[(2,2-difluoropropanoyl)amino]-1-(6-methoxypyridin-3-yl)propyl]oxy}-1H-indazol-1-yl)-N-(tetrahydrofuran-3-yl)benzamide]"
13,13.6,COc1ccc([C@@H](Oc2ccc3c(cnn3-c3cccc(C(=O)NC4CCCC4)c3)c2)[C@H](CO)NC(=O)C(C)(F)F)cn1 [Example 27]
14,16.9,"C[C@H](NC(=O)C(C)(F)F)[C@H](Oc1ccc2c(cnn2-c2cccc(C(=O)NCCN3CCNC3=O)c2)c1)c1ccccc1 [Example 7, 3-[5-({(1R,2S)-2-[(2,2-difluoropropanoyl)amino]-1-phenylpropyl}oxy)-1H-indazol-1-yl]-N-[2-(2-oxoimidazolidin-1-yl)ethyl]benzamide]"
15,19.9,"C[C@H](NC(=O)C(N)=O)[C@H](Oc1ccc2c(cnn2-c2cccc(C(=O)N3CCC[C@@H]3C(N)=O)c2)c1)c1ccccc1 [Example 2, N-[(1S,2R)-2-{[1-(3-{[(2R)-2-carbamoylpyrrolidin-1-yl]carbonyl}phenyl)-1H-indazol-5-yl]oxy}-1-methyl-2-phenylethyl]ethanediamide]"
16,2.29,"C[C@H](NC(=O)C(C)(F)F)[C@H](Oc1ccc2c(cnn2-c2cccc(C(=O)NCCC(N)=O)c2)c1)c1ccccc1 [Example 19, N-(3-amino-3-oxopropyl)-3-[5-({(1R,2S)-2-[(2,2-difluoropropanoyl)amino]-1-phenylpropyl}oxy)-1H-indazol-1-yl]benzamide]"
17,4.46,"COc1ccc([C@@H](Oc2ccc3c(cnn3-c3cccc(C(=O)NC4CCS(=O)(=O)C4)c3)c2)[C@H](C)NC(=O)C(C)(F)F)cn1 (stereo partly drawn) [Example 24, 3-(5-{[(1R,2S)-2-[(2,2-difluoropropanoyl)amino]-1-(6-methoxypyridin-3-yl)propyl]oxy}-1H-indazol-1-yl)-N-(1,1-dioxidotetrahydrothiophen-3-yl)benzamide]"
18,42.4,"C[C@H](NC(=O)C(C)(F)F)[C@H](Oc1ccc2c(cnn2-c2cccc(C(=O)NCc3n[nH]c4ccccc34)c2)c1)c1ccccc1 [Example 16, 3-[5-({(1R,2S)-2-[(2,2-difluoropropanoyl)amino]-1-phenylpropyl}oxy)-1H-indazol-1-yl]-N-(1H-indazol-3-ylmethyl)benzamide]"
19,75.9,"C[C@H](NC(=O)C(C)(F)F)[C@H](Oc1ccc2c(cnn2-c2cccc(C(=O)N3C[C@H](O)C[C@H]3C(N)=O)c2)c1)c1ccccc1 [Example 20, (4R)-1-({3-[5-({(1R,2S)-2-[(2,2-difluoropropanoyl)amino]-1-phenylpropyl}oxy)-1H-indazol-1-yl]phenyl}carbonyl)-4-hydroxy-L-prolinamide]"
20,38.4,"C[C@H](NC(=O)C(C)(F)F)[C@H](Oc1ccc2c(cnn2-c2cccc(C(=O)NCCN3CCCC3=O)c2)c1)c1ccccc1 [Example 13, 3-[5-({(1R,2S)-2-[(2,2-difluoropropanoyl)amino]-1-phenylpropyl}oxy)-1H-indazol-1-yl]-N-[2-(2-oxopyrrolidin-1-yl)ethyl]benzamide]"
21,2.91,"C[C@H](NC(=O)C1(C#N)CC1)[C@H](Oc1ccc2c(cnn2-c2cccc(C(=O)N3CCC[C@@H]3C(N)=O)c2)c1)c1ccccc1 [Example 21, 1-{[3-(5-{[(1R,2S)-2-{-[1(1-cyanocyclopropyl)carbonyl]amino}-1-phenylpropyl]oxy}-1H-indazol-1-yl)phenyl]carbonyl}-D-prolinamide]"
